# Data from US3932633A, “Novel o-triazenobenzamides, in treating aggressive behavior” (Uniroyal Inc., priority 1974, dated 1976).
# Structures can show the parent of a compound that is named as a salt. Where two headings read alike, the source gives them in different places.
# What was measured:
# [1] = system: isolation-induced fighting in mice; test: Isolated fighting mouse (IFM) test / isolated mouse aggression; format: in vivo; conditions: for responders at 30 mg/kg / ED50: Mus musculus, ip; for responders at 30 mg/kg: 30 mg/kg intraperitoneally, at least 40% protected = active; for protected test animals in the IFM test: dose not restated in this sentence
# Method: *IFM - Isolated fighting mouse test at a dose of 30 mg/kg
# intraperitoneally; those compounds which protected at least 40% of the
# (§1) Two models of aggression are used in the primary screening for neuroleptics, (1) isolation-induced fighting in mice (IFM), and (2) aggression induced in rats by destruction of the septal area (septal rat). Compounds are first submitted, however, to the neuropharmacological profile, a standard procedure (see, e.g., Samuel Irwin, Science, 136, 123 [1962]) employed in screening a compound to determine its usefulness as a central nervous system active compound. Those agents which cause depression over a wide dose range are then submitted to the first anti-aggression screen, the isolation-induced fighting mouse assay.
# (§2) The compound of Example 6 was compared with chlorpromazine and chlordiazepoxide for its anti-aggressive activity. Three models of experimentally-induced aggression in rodents were studied (R. D. Sofia, Life Science, 8: 705, 1969).
# [2] = Neurotoxicity (rotating rod / rotorod), mice; conditions: mouse, in vivo
# Method: (§3) In the neurotoxicity test, the value (NTD50) is defined as the dose necessary to cause 50% of mice or rats trained to walk a rotating wooden rod (5 rpm) to fall at the time of peak effect, and is a measure of drug effects on motor function or central nervous system toxicity. The results set forth in Table III were obtained when the compound of Example 6 was tested against chlorpromazine and chlordiazepoxide.
# [3] = system: mice trained to walk a rotating wooden rod; test: Neurotoxicity (rotating rod / rotorod), mice; conditions: mouse, in vivo
# Method: as §3
# [4] = system: spontaneous locomotor activity in rats; test: Spontaneous locomotor activity; format: in vivo; conditions: Rattus norvegicus, ip, 0.5 h; I.P., rats, 30 minutes after administration, 30 minute activity count; read-out: SD50 (dose causing 50% reduction from control activity)
# [5] = Neurotoxicity (rotating rod / rotorod), rats; conditions: rat, in vivo, ip
# Method: as §3
# [6] = system: electroshock-induced fighting in mice; test: Electroshock-induced fighting in mice; format: in vivo, mouse; conditions: i.p. administration
# Excerpt: as §2
# [7] = system: aggression induced in rats by destruction of the septal area; test: Septal rat aggression; format: in vivo; conditions: for ED50: Rattus norvegicus, ip
# Excerpt: as §1, §2
# [8] = system: maximal electroshock seizures in mice; test: Maximal electroshock seizures; format: in vivo, mouse; conditions: I.P., mice; inactive at: Example 6 200 mg/kg, chlorpromazine 25 mg/kg
# Method: Groups of ten mice each were injected i.p. with a vehicle and the compound of Example 6 and placed in individual Plexiglas squares. Thirty minutes after i.p. injection, each mouse was administered an electric shock transcorneally at 50mA intensity, 0.2 seconds duration (Swinyard, et al, J. Pharmacol. Exptl. Ther., 106: 319, 1952). The criterion for activity is protection against tonic extension of the hind limbs. The dose necessary to protect 50% of the mice (MES50) was determined.
# [9] = system: pentylenetetrazol seizures in mice; test: Pentylenetetrazol seizures; format: in vivo, mouse; conditions: I.P., mice; inactive at: Example 6 200 mg/kg, chlorpromazine 100 mg/kg
# Method: In this test (modification of the method introduced by Everett and Richard, J. Pharmacol. Exptl. Ther., 81: 402, 1944), groups of ten mice each are pretreated i.p. with vehicle and various doses of the compound of Example 6 and placed in Plexiglas squares. Thirty minutes later, all mice are injected subcutaneously (s.c.) with pentylenetetrazol at 125 mg/kg and observed immediately thereafter for convulsions and death for a period of 1 hour.
# [10] = system: d-amphetamine aggregation-induced lethality; test: d-Amphetamine aggregation; format: in vivo; conditions: inactive at: Example 6 200 mg/kg, chlordiazepoxide 50 mg/kg
# Method: Protection from d-amphetamine aggregation-induced lethality is usually afforded by alpha-adrenergic-blocking agents such as chlorpromazine, phenoxybenzamine, etc. Percent protection was determined and an ED50 value was calculated.
# [11] = system: dihydroxyphenylalanine-induced fighting behavior in mice; test: Dihydroxyphenylalanine (DOPA) fighting test; format: in vivo, mouse
# Method: It is well known that when monoamine oxidase inhibitors are administered prior to the administration of d1-DOPA, which is a noradrenaline precursor, convulsions or excitation occur. In this study, the MAO inhibitor pargyline (80 mg/kg) was given 1, 2 and 4 hours prior to administering 200 mg/kg of d1-DOPA. […] Thus, in this procedure, none of the agents tested appears to be a MAO inhibitor.
# [12] = system: tetrabenazine-induced ptosis in mice; test: Antagonism of tetrabenazine-induced ptosis; format: in vivo, mouse; conditions: 200 mg/kg, 30 minutes before tetrabenazine 32 mg/kg intraperitoneally
# Method: Groups of mice were given 32 mg/kg of tetrabenazine intraperitoneally 30 minutes after an injection of the compound of Example 6 (200 mg/kg). The degree of ptosis (eyelid drooping or closure) was then determined exactly 30 minutes after tetrabenazine administration.
# 5 day lethality, mice = conditions: mouse, in vivo
# Excerpt: (§4) Table VIII gives the results of 5 day lethality studies following single injections of drug. All values presented represent tests conducted when animals were housed 10 per cage. The compound of Example 6 was compared with chlorpromazine and chlordiazepoxide. In these and all the preceding calculations, the method of Litchfield and Wilcoxon (J. Pharmacol. Exptl. Ther., 96: 99, 1949) was used to estimate effective (ED50) or lethal (LD50) dose.
# 5 day lethality, rats = conditions: rat, in vivo, ip
# Excerpt: as §4
# [13] = system: hissing response elicited by hypothalamic stimulation in cats; test: Evoked hypothalamic rage response - cats; format: in vivo, cat; conditions: 25 mg/kg orally for three days
# Excerpt: The effect of the compound of Example 6 on the hissing response elicited by hypothalamic stimulation in cats was studied in an effort to determine if it had properties similar to that of chlordiazepoxide and other anti-anxiety-like agents. […] Cats with chronically implanted electrodes, stereotaxically placed in the perifornical region of the hypothalamus, were used in this study. Stimulation was accomplished in the unanesthetized, freely moving animal, and the threshold for the hissing response was determined with the following stimulus parameters: square wave stimulation of 150 Hz with a duration of 0.5 msec and voltage ranging from 5.4 to 30. The compound of Example 6 was administered orally in capsule form. Following administration, the stimulation threshold for the hiss response was determined at 1, 2, 4, 6 and 24 hours. If an effect was observed, the stimulation was carried out daily until the thresholds returned to control values. The compound of Example 6 was administered orally at a dose of 25 mg/kg for three days. […] It can be concluded that the compound of Example 6 has no effect on hypothalamic excitability in cats and in this respect differs markedly from chlordiazepoxide.
# mice = test: Neuropharmacological profile; format: in vivo, mouse
# Excerpt: as §1
# The compound of Example 6 was studied in the neuropharmacological profile, which, as indicated above, is a standardized multi-dimensional observation technique used on mice to grade symptomatology and acute toxicity relative to dosage.
# [14] = system: isolation-induced fighting in mice; test: Isolated fighting mouse (IFM) test / isolated mouse aggression; format: in vivo; conditions: ip, 60 mg/kg intraperitoneally, read-out: IFM % protected
# [15] = system: tetrabenazine-induced ptosis in mice; conditions: stated as known comparison; cited from earlier work
structure (smiles),measurement,setting,value
"Cc1ccc(NN=Nc2ccccc2C(N)=O)cc1Cl [Example 3, 2-[3-(3-chloro-4-methylphenyl)-1(or 2)-triazeno]-benzamide]",responders at 30 mg/kg,[1],100%
same,ED50,"[1]; i.p. administration, read-out: ED50 (IFM)",9.1 mg/kg
same,protected test animals in the IFM test,[1],100%
same,TD50,[2],> 100 mg/kg
same,depression,[3],do not cause depression
"Cc1nc(NN=Nc2ccccc2C(N)=O)sc1C(=O)NCc1ccccc1 [Example 6, 2-[3-(4-methyl-5-(N-benzyl-carbamoyl)-2-thiazolyl)-2(or 1)-triazeno]-benzamide]",responders at 30 mg/kg,[1],100%
same,ED50,"[1]; i.p. administration, read-out: ED50 (95% Confidence Limits), Isolated Mouse Aggression",1.8 mg/kg
same,"NTD50/ED50, Isolated Mouse Aggression",[1]; i.p. administration,710
same,ED50,[4],~500 mg/kg
same,TD50,"[2]; ip, I.P., mice, 95% confidence limits, read-out: NTD50",> 1280 mg/kg
same,TD50,[5],~500 mg/kg
same,ED50,"[6]; Mus musculus, ip, read-out: ED50 (95% Confidence Limits), Electroshock-Induced Fighting in Mice",96 mg/kg
same,"NTD50/ED50, Electroshock-Induced Fighting in Mice",[6],13.3
same,ED50,"[7]; i.p. administration, read-out: ED50 (95% Confidence Limits), Septal Rat Aggression",~4.5 mg/kg
same,"NTD50/ED50, Septal Rat Aggression",[7]; i.p. administration,111.0
same,selectivity in inhibition of septal rat aggression versus chlordiazepoxide,[7]; septal rat,185 times
same,MES50,[8],Inactive
same,MET50,[9],Inactive
same,"ED50, d-amphetamine aggregation",[10],Inactive
same,"excitation, salivation, jumping, and fighting with d1-DOPA","[11]; 200 mg/kg d1-DOPA, pargyline 80 mg/kg, Example 6 100 mg/kg, chlorpromazine 5 mg/kg, chlordiazepoxide 15 mg/kg",these symptoms were not observed
same,potentiation of dihydroxyphenylalanine-induced fighting behavior in mice,[11]; mice,failed to (1) potentiate dihydroxyphenylalanine-induced fighting behavior in mice
same,reversal of tetrabenazine-induced ptosis,[12],did not reverse tetrabenazine-induced ptosis
same,LD50 at 120 h,"5 day lethality, mice; ip",> 1280 mg/kg
same,LD50 at 120 h,"5 day lethality, mice; po",> 800 mg/kg
same,LD50 at 120 h,"5 day lethality, rats",> 1400 mg/kg
same,decrease of the threshold for the rage response,[13],not observed during the experiments
same,delay from stimulus to response,[13],not changed
same,"rage response, intensity or character",[13],not changed in intensity or character
same,effect on hypothalamic stimulation (threshold),[13]; 25 mg/kg,no effect on hypothalamic stimulation
same,deaths in neuropharmacological profile,"mice; 30, 100, 300 mg/kg, mice",No deaths occurred
same,"central nervous system depressant action, profile result","mice; mouse, in vivo",very weak central nervous system depressant
"Cc1nc(NN=Nc2ccccc2C(=O)NCCCN(C)C)sc1C(=O)NCc1ccccc1 [Example 7, N-(3-dimethylaminopropyl)-2-[3-(4-methyl-5-(N-benzylcarbamoyl)-2-thiazolyl)-2(or 1)-triazeno]-benzamide (2:1) sulfate salt]",protected test animals in the IFM test,[1],100%
same,TD50,[2],> 100 mg/kg
same,depression,[3],do not cause depression
same,"septal rat aggression, protection",[7]; 6.25 mg/kg i.p.,100%
same,"septal rat aggression, protection",[7]; 12.5 mg/kg i.p.,100%
same,ED50,"[7]; indicated by 100% protection at 6.25 mg/kg, read-out: ED50, septal rat aggression",< 6.25 mg/kg
same,responders at 60 mg/kg,[14],100%
CN(C)CCC=C1c2ccccc2CCc2ccccc21 [amitriptyline],reversal of tetrabenazine-induced ptosis by anti-depressants,[15],reverse tetrabenazine-induced ptosis
CNCCCN1c2ccccc2CCc2ccccc21 [desipramine],reversal of tetrabenazine-induced ptosis by anti-depressants,[15],reverse tetrabenazine-induced ptosis
